From PubChem BioAssay (NCI)
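Step 1: Grow cells in 96-well plates. Step 2: Expose to compound for 48 hours at 5 concentrations. Step 3: Interpolate endpoints linearly; if unreached, use highest concentration. The concentration for 50% growth inhibition is given as GI50. The concentration for full growth arrest is given as TGI.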

Key:
Experiment in all cases: DTP human tumour cell line panel, 48 h
[1] = tested on: M14 melanoma
[2] = tested on: OVCAR-5 ovarian
[3] = tested on: SNB-19 CNS
[4] = tested on: LOX IMVI melanoma
[5] = tested on: COLO 205 colon
[6] = tested on: A549 NSCLC
[7] = tested on: KM12 colon
[8] = tested on: SNB-75 CNS
[9] = tested on: SK-MEL-2 melanoma
[10] = tested on: SK-OV-3 ovarian

## Cc1cccc(Nc2cn(CCOc3ccccc3)c(=O)[nH]c2=O)c1
[1]
  TGI: > 100 µM
[2]
  TGI: > 100 µM
[3]
  TGI: > 100 µM
[4]
  TGI: 94 µM
[5]
  TGI: 36.8 µM
[6]
  TGI: 61.9 µM
[7]
  TGI: > 100 µM

## COc1cc(/C=C\c2ccc(SC)cc2)cc(OC)c1OC
[1]
  TGI: > 100 µM
[2]
  TGI: > 18.5 µM
[4]
  TGI: 45.2 µM
[5]
  TGI: 0.108 µM
[8]
  TGI: > 100 µM
[9]
  TGI: 0.841 µM
[6]
  TGI: > 100 µM
[7]
  TGI: 2.8 µM
[10]
  TGI: 1.75 µM

## CC(=O)NC1C(OCC(=O)NC(C)C(=O)NC(CCC(=O)NCCCCCNc2ccc([N+](=O)[O-])c3[nH]c4ccccc4c(=O)c23)C(N)=O)C(O)C(CO)OC1(C)OCc1ccccc1 (configuration not stated)
[1]
  TGI: > 50 µM
[2]
  TGI: > 50 µM
[3]
  TGI: > 50 µM
[4]
  TGI: > 50 µM
[5]
  TGI: > 50 µM
[8]
  TGI: > 50 µM
[9]
  TGI: > 50 µM
[6]
  TGI: > 50 µM
[7]
  TGI: > 50 µM
[10]
  TGI: > 50 µM

## CCOc1ccc(N=NC2C(=O)N(C(=O)CC(=O)Nc3ccc(Cl)cc3)N=C2C)cc1 (configuration not stated)
[1]
  TGI: > 100 µM
[2]
  TGI: > 100 µM
[4]
  TGI: > 100 µM
[5]
  TGI: > 100 µM
[8]
  TGI: > 100 µM
[9]
  TGI: > 100 µM
[6]
  TGI: > 100 µM
[7]
  TGI: > 100 µM
[10]
  TGI: > 100 µM

## NS(=O)(=O)c1ccc(CNC(=S)NC(=O)Nc2ccc(Cl)c(Cl)c2)cc1
[1]
  TGI: 35.8 µM
[2]
  TGI: > 100 µM
[3]
  TGI: 44.3 µM
[4]
  TGI: 27.9 µM
[5]
  TGI: 77.4 µM
[8]
  TGI: 60.2 µM
[9]
  TGI: 31.4 µM
[6]
  TGI: 65.5 µM
[7]
  TGI: 43.1 µM
[10]
  TGI: 52.8 µM

## CCN(CC)P1(=S)Oc2ccc3ccccc3c2-c2c(ccc3ccccc23)O1
[1]
  TGI: > 100 µM
[2]
  TGI: > 100 µM
[3]
  TGI: > 100 µM
[4]
  TGI: > 100 µM
[5]
  TGI: > 100 µM
[8]
  TGI: > 100 µM
[9]
  TGI: > 100 µM
[6]
  TGI: > 100 µM
[7]
  TGI: > 100 µM
[10]
  TGI: > 100 µM

## CCOC(=O)C1(C(=O)OCC)C[C@H]2CON=C2[C@@H]1c1ccc(C(F)(F)F)cc1
[1]
  TGI: > 100 µM
[2]
  TGI: > 100 µM
[3]
  TGI: > 100 µM
[4]
  TGI: 32.4 µM
[5]
  TGI: > 100 µM
[8]
  TGI: > 100 µM
[9]
  TGI: > 100 µM
[6]
  TGI: > 100 µM
[7]
  TGI: > 100 µM
[10]
  TGI: > 100 µM

## C[Si](C)(C)C#C[I+]c1ccccc1
[1]
  TGI: 85.9 µM
[2]
  TGI: > 100 µM
[3]
  TGI: > 100 µM
[4]
  TGI: 41.2 µM
[5]
  TGI: 32.9 µM
[8]
  TGI: > 100 µM
[9]
  TGI: > 100 µM
[6]
  TGI: > 100 µM
[7]
  TGI: > 100 µM
[10]
  TGI: > 100 µM

## COc1ccc2cc(C(=O)NCCc3ccccc3)ccc2c1OC
[1]
  TGI: > 100 µM
[2]
  TGI: > 100 µM
[3]
  TGI: > 100 µM
[4]
  TGI: > 100 µM
[5]
  TGI: > 100 µM
[9]
  TGI: > 100 µM
[6]
  TGI: > 100 µM
[10]
  TGI: > 100 µM

## N#Cc1nn(-c2ccc(Cl)cc2)c(N)c2c(=N)n3nc(-c4ccccc4)cc3nc12
[1]
  TGI: > 100 µM
[3]
  TGI: > 100 µM
[4]
  TGI: > 37.9 µM
[8]
  TGI: > 68.4 µM
[9]
  TGI: > 20.7 µM
[6]
  TGI: > 42.1 µM
[7]
  TGI: > 100 µM
[10]
  TGI: 29.3 µM

## O=c1c(-c2ccccc2)c[nH]c2cc([N+](=O)[O-])c(/C(Cl)=C/c3ccccc3)cc12
[2]
  TGI: > 59.5 µM
[3]
  TGI: > 54.5 µM
[4]
  TGI: > 22.5 µM
[5]
  TGI: > 38.2 µM
[8]
  TGI: 24.1 µM
[9]
  TGI: > 100 µM
[6]
  TGI: 19.6 µM
[7]
  TGI: 38.6 µM
[10]
  TGI: > 100 µM

## Cc1cc(SCC(=O)c2ccc(Br)cc2)cc(C)[o+]1
[1]
  TGI: 79.1 µM
[2]
  TGI: 69.9 µM
[3]
  TGI: > 100 µM
[4]
  TGI: > 100 µM
[5]
  TGI: 83.7 µM
[8]
  TGI: 56.9 µM
[9]
  TGI: 76 µM
[6]
  TGI: > 100 µM
[7]
  TGI: 62.6 µM
[10]
  TGI: > 100 µM

## CC1(c2cccc(C3CCC4(C=CC3=O)OCCO4)c2)OCCO1 (configuration not stated)
[1]
  TGI: 20.1 µM
[2]
  TGI: 32.2 µM
[3]
  TGI: > 45.9 µM
[4]
  TGI: 27.8 µM
[5]
  TGI: 18.6 µM
[8]
  TGI: 30.3 µM
[9]
  TGI: 27.4 µM
[6]
  TGI: 34 µM
[7]
  TGI: 33.4 µM
[10]
  TGI: > 67.5 µM

## c1ccc(COc2nc3ccc(C45CC6CC(CC(C6)C4)C5)cc3[nH]2)cc1
[1]
  TGI: 98.4 µM
[2]
  TGI: > 100 µM
[3]
  TGI: > 100 µM
[4]
  TGI: 36.5 µM
[5]
  TGI: 21.2 µM
[8]
  TGI: > 86.5 µM
[9]
  TGI: 52.6 µM
[6]
  TGI: > 100 µM
[7]
  TGI: > 100 µM
[10]
  TGI: > 100 µM

## COC(=O)c1nc2c(C)c(O)c(O)c([C@H](C)CCC=C(C)C)c2o1
[1]
  TGI: > 100 µM
[2]
  TGI: > 100 µM
[3]
  TGI: > 100 µM
[4]
  TGI: > 100 µM
[5]
  TGI: 35.6 µM
[8]
  TGI: 56.1 µM
[9]
  TGI: 59.7 µM
[6]
  TGI: 57.1 µM
[7]
  TGI: 67.4 µM
[10]
  TGI: > 100 µM

## OC(Cn1cncn1)(Cn1cncn1)c1ccc(Cl)cc1Cl
[1]
  TGI: > 100 µM
[2]
  TGI: > 100 µM
[4]
  TGI: > 100 µM
[5]
  TGI: > 100 µM
[8]
  TGI: > 100 µM
[9]
  TGI: > 100 µM
[6]
  TGI: > 100 µM
[7]
  TGI: > 100 µM
[10]
  TGI: > 100 µM

## COc1cccc2c1C(=O)c1c(O)c3c(c(O)c1C2=O)C[C@@](O)(C(C)=O)C[C@@H]3OC1CC(N)C(O)C(C)O1 (some centres not stated)
[1]
  GI50: 0.0487 µM
[3]
  GI50: < 0.0135 µM
[5]
  TGI: 1.28 µM [middle of 6 runs]
[8]
  GI50: 0.0161 µM
[9]
  GI50: 0.122 µM
[6]
  GI50: 0.0153 µM
[7]
  GI50: 0.0443 µM
[10]
  GI50: 0.0189 µM

## CC(C)(C)NCC(O)COc1cccc2[nH]c(C#N)cc12 (configuration not stated)
[1]
  TGI: > 100 µM
[2]
  TGI: > 100 µM
[3]
  TGI: > 100 µM
[5]
  TGI: > 100 µM
[9]
  TGI: > 100 µM
[6]
  TGI: > 100 µM
[7]
  TGI: > 100 µM
[10]
  TGI: > 100 µM

## NC12c3c4cccc3Oc3cccc(c31)Oc1cccc(c12)O4
[1]
  TGI: > 50 µM
[2]
  TGI: > 50 µM
[3]
  TGI: > 50 µM
[5]
  TGI: > 50 µM
[8]
  TGI: > 50 µM
[9]
  TGI: > 50 µM
[6]
  TGI: > 50 µM
[7]
  TGI: > 50 µM
[10]
  TGI: > 50 µM

## c1ccc(/C(=N/Nc2cnccn2)c2ncccn2)cc1
[1]
  TGI: > 100 µM
[2]
  TGI: > 100 µM
[3]
  TGI: > 100 µM
[5]
  TGI: > 100 µM
[8]
  TGI: > 100 µM
[9]
  TGI: > 100 µM
[6]
  TGI: > 100 µM
[7]
  TGI: > 100 µM
[10]
  TGI: > 100 µM

## CCOC(=O)Nc1ccc(S(=O)(=O)Nc2ccc(Br)cc2)cc1
[1]
  TGI: > 100 µM
[2]
  TGI: > 100 µM
[3]
  TGI: > 100 µM
[4]
  TGI: > 100 µM
[5]
  TGI: 30.4 µM
[9]
  TGI: > 100 µM
[6]
  TGI: > 100 µM
[7]
  TGI: > 100 µM
[10]
  TGI: > 100 µM
